From patent US20080114080A1, “Compositions and Methods for the Treatment of Cystic Fibrosis and other Pulmonary Disorders” (priority 2006, published 2008)
≈ marks a conversion by molar mass, not a printed value. Like-named read-outs stand apart in the source and are kept apart here.

Key:
[1] = biological target: mutant forms (ΔF508) of CFTR (Homo sapiens, UniProt P13569, DEL508-508); conditions: cited from earlier work
[2] = recent report; cited from earlier work
[3] = system: chemokine receptors (CXCR2/b); assay: Cl- transport/efflux in Calu-3 cells, IL-8 via chemokine receptors; assay type: cell-based, human
[4] = cited from earlier work
[5] = system: rat colon epithelial cells; conditions: cited from earlier work
[6] = biological target: T1, C5aR (CD88) (Homo sapiens, UniProt P21730); assay: Cl- efflux in Calu-3 cells, C5a via C5aR; assay type: cell-based
T1 construct: endogenous in cells; host or cells: Calu-3 (ATCC HTB-55)
T1 sequence (P21730 1-350): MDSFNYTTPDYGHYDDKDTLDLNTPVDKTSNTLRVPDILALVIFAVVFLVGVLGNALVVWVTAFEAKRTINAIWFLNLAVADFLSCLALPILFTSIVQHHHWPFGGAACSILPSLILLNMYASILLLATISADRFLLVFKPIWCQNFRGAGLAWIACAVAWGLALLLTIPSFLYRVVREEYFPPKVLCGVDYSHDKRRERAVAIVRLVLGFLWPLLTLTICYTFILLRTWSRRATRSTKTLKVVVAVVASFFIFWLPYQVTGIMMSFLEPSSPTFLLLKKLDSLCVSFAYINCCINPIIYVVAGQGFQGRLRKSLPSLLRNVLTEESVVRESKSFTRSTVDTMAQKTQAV

[7] = system: adenylyl cyclase activity; assay: adenylyl cyclase activity in Calu-3 cells; assay type: cell-based, human; conditions: FIG. 6

mutant forms (ΔF508) of CFTR, sequence (P13569 with tags, fused parts or gaps DEL508-508): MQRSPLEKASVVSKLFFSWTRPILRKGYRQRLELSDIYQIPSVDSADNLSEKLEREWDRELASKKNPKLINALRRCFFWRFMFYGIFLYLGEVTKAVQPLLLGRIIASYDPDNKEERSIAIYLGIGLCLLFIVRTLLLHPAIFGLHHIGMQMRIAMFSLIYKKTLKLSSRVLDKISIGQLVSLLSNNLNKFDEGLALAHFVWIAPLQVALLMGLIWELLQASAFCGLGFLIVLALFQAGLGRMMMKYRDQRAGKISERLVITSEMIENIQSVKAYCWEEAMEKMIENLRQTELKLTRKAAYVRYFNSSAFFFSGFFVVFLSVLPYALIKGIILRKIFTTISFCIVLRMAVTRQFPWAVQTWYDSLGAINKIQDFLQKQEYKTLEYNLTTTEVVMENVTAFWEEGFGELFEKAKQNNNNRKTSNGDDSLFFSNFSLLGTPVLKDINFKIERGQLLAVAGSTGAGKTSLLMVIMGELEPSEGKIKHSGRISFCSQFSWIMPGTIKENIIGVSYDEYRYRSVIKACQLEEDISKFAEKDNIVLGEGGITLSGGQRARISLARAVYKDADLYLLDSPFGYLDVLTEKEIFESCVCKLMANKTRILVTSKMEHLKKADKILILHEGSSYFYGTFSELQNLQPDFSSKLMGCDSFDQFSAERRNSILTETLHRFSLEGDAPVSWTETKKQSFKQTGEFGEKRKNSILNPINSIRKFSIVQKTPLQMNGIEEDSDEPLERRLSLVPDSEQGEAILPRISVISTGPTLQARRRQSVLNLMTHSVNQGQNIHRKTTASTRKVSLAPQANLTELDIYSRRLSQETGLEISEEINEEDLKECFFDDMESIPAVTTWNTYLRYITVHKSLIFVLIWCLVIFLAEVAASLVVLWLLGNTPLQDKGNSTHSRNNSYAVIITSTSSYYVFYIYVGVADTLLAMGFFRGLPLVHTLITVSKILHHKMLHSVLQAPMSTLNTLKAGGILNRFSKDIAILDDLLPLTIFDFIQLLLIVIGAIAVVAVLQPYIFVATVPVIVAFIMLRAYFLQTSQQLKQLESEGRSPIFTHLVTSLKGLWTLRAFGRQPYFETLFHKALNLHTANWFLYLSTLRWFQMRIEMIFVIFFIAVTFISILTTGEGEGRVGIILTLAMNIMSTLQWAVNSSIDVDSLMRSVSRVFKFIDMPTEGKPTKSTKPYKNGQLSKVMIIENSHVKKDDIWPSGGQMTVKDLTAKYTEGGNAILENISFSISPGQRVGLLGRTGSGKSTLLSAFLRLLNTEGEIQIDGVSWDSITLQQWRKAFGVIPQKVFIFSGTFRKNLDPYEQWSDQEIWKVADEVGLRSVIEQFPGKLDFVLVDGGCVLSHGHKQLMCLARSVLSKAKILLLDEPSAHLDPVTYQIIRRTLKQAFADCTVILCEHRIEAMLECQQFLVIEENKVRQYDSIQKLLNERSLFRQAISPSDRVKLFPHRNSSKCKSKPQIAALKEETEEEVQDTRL

## CC(C)Cn1c(=O)n(C)c(=O)c2[nH]cnc21 [IBMX]
[1]
  activity of mutant CFTR, chloride transport function: able to stimulate some activity

## CCCn1c(=O)c2[nH]c(C3CCCC3)nc2n(CCC)c1=O [CPX, 8-cyclo-pentyl-1,3-dipropylxanthine]
[2]
  efficacy in treating mild cystic fibrosis: somewhat effective

## IL-8: chemokine released on activation of innate immunity, activates CXCR2
[3]; Calu-3 cells, via CXCR2/b, FIG. 9
  basal levels of Cl- transport: inhibits
[3]; FIG. 10
  cAMP dependent Cl- efflux: inhibits

## CNc1ccc2oc(C[C@H]3O[C@@]4(CC[C@H]3C)O[C@H]([C@H](C)C(=O)c3ccc[nH]3)[C@H](C)C[C@H]4C)nc2c1C(=O)O [A23187, calcimycin]
[4]; in DMSO
  Solubility: 50 mg/mL (≈ 95.5 mM)
[4]; in EtOH
  Solubility: 5 mg/mL (≈ 9.55 mM)

## O=c1c(O)c(-c2ccc(O)c(O)c2)oc2cc(O)cc(O)c12 [quercetin]
[5]
  Cl- secretion: induce Cl^− secretion

B1: C5a: proinflammatory anaphylatoxin peptide generated during complement activation, acts through C5aR (protein, UniProt P01031 678-751, looked up)
C5a anaphylatoxin: TLQKKIEEIAAKYKHSVVKKCCYDGACVNNDETCEQRAARISLGPRCIKAFTECCVVASQLRANISHKDMQLGR
modifications: C5a anaphylatoxin
[6]; Calu-3 cells, via C5aR (CD88), FIG. 7
  basal Cl- efflux: inhibits
[6]; FIG. 8
  cAMP dependent Cl- efflux: inhibits
[7]
  adenylyl cyclase activity: inhibits
